Reference: patent US20120207763A1, “PYRROLOPYRIMIDINE COMPOUNDS AND THEIR USES” (ASTEX THERAPEUTICS LIMITED, priority 2006, published 2012)
Where two headings read alike, the source gives them in different places.

Key:
Format in all cases: biochemical
JAK-3 = target: T1, JAK-3 (Homo sapiens, UniProt P52333); test: JAK LANCE enzymatic assay (JAK-3)
T1 construct: GST fusion constructs of the kinase domains of both enzymes are used; GST
Excerpt: Binding of cytokines and certain growth factors to their respective receptors trigger activation of Janus kinases, which phosphorylate members of the STAT family. Phosphorylated STAT molecules dimerize and migrate to the nucleus where they bind to DNA and initiate transcription of responsive genes. Inhibitors of pathways downstream of cytokine/growth factor receptors have therapeutic potential for several indications. An enzymatic assay for JAK-3 and JAK-2 has been developed to identify T-cell selective inhibitors. GST fusion constructs of the kinase domains of both enzymes are used and a biotinylated, tyrosine containing peptide serves as substrate. Phosphorylation of this peptide by the respective kinase is quantified with an europium-labeled anti-phosphotyrosine antibody (Eu-PT66) as energy donor and a streptavidin-allophycocyanine conjugate (SA-APC) as energy acceptor. The assay has been established in a 384 well format.
In the JAK LANCE™ assay, a biotinylated peptide is incubated together with compounds and ATP in buffer. The phosphorylation reaction starts after addition of JAK kinase. After incubation at RT the reaction is stopped with EDTA and the product detected by addition Streptavidin-Allophycocyanin and Europium-labeled antiphosphotyrosine antibody. The signal is measured using an EnVision Reader. Exc: 320 nm, Em, Donor: 615 nm and Em, Acceptor: 665 nm in time resolved fashion with a delay of […].

CDK4 = CDK4 (Homo sapiens, UniProt P11802); test: CDK4 HTRF assay; conditions: Table E
CDK4, sequence (P11802 whole entry): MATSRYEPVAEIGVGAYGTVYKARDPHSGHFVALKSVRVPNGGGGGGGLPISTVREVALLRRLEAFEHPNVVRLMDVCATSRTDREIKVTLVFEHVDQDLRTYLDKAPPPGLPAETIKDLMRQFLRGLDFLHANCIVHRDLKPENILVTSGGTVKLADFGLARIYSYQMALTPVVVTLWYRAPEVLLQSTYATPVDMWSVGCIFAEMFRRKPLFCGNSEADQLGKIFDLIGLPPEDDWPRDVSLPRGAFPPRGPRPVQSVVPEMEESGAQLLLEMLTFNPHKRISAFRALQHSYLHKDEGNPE
CDK4, sequence (P24385 whole entry partner): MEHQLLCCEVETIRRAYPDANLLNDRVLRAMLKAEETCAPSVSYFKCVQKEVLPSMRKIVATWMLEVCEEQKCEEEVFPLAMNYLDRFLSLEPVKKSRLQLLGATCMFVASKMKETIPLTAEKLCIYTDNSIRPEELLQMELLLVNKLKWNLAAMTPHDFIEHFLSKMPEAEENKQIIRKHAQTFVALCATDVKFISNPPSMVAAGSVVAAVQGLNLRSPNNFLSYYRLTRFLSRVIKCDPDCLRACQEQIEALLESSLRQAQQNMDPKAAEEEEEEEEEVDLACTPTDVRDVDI

[1] = target: CDK2/Cyclin-A kinase complex (Homo sapiens, UniProt P24941); test: CDK2 IMAP fluorescence polarization assay; conditions: Table E; read-out: CDK2cyA IMAP/IC50 [umol l − 1]
Excerpt: In order to test the CDK2 activity of the compounds of the invention, the CDK2 assay is a flourescence polarization assay, where the enzyme is a purified active CDK2/Cyclin-A kinase complex and the substrate is a synthesized peptide derived from Histone H1. This assay utilizes the IMAP technology from Molecular Devices. The active CDK2/Cyclin-A complex phosphorylates the peptide substrate, which is conjugated with the TAMRA tag. The phosphorylated site is then recognized by a metal containing molecule that interacts with the TAMRA tag to induce a high flourescence polarization. The compounds that inhibit the CDK2 kinase activity would inhibit the flourescence output of the assay.

[2] = Table B, read-out: Jak-3 Lance/ IC50 [nmol I-1]
[3] = read-out: CDK4 HTRF/IC50 [umol l − 1]

T1 sequence (P52333 822-1111 limits assumed): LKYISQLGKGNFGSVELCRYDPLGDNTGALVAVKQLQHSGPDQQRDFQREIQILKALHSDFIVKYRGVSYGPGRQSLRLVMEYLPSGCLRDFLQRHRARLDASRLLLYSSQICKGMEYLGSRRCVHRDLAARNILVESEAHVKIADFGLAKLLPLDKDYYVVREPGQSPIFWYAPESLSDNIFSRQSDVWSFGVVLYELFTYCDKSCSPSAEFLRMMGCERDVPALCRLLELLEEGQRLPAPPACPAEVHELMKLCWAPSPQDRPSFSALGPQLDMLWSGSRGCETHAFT

IC50 (JAK-3; Table A, read-out: Jak-3/ IC50)	IC50 (CDK4; [3])	IC50 [1]	Structure (SMILES)	other results
≤ 100 nM			CCC(CC)n1ccc2cnc(Nc3cccc(NC(=O)c4ccncc4)c3)nc21	
≤ 100 nM			CCC(CC)N1C(=O)Cc2cnc(Nc3cccc(NC(=O)c4ccncc4)c3)nc21	
			CCC(CC)N1C(=O)C(C)(C)c2cnc(Nc3ccc(N4CCN(C)CC4)cc3)nc21 [drawing 105]	IC50 (JAK-3; [2]): ≥ 100 nM
			CCC(CC)N1C(=O)C(C)(C)c2cnc(Nc3ccc(N4CCNCC4)cc3)nc21 [drawing 112]	IC50 (JAK-3; [2]): ≥ 100 nM
≥ 100 nM			CCC(CC)N1C(=O)Cc2cnc(Nc3ccc(C(=O)NC(C)(C)C)cc3)nc21	
			Cc1cn(C2CCCCC2)c2nc(Nc3ccc(N4CCNCC4)cn3)ncc12 [drawing 127]	IC50 (JAK-3; [2]): ≥ 100 nM
≥ 100 nM			CN1CCN(C(=O)c2cccc(Nc3ncc4c(n3)N(C3CCCCC3)C(=O)C4)c2)CC1	
≥ 100 nM			COc1ccc(C(=O)N2CCN(C)CC2)cc1Nc1ncc2c(n1)NC(=O)C2 [drawing 18]	
≥ 100 nM			O=C1Cc2cnc(Nc3ccc(N4CCOCC4)cc3)nc2N1C1CC1	
≥ 100 nM			CCC(CC)N1C(=O)Cc2cnc(Nc3cccc(N(C)CCN4CCCC4)c3)nc21	
≤ 100 nM			CCC(CC)N1C(=O)Cc2cnc(Nc3cccc(NCCN4CCN(C)CC4)c3)nc21	
≥ 100 nM			CCC(CC)N1C(=O)Cc2cnc(Nc3ccc(C(=O)N4CCOCC4)cc3)nc21	
≤ 100 nM			CCNC(=O)c1ccc(Nc2ncc3c(n2)N(C(CC)CC)C(=O)C3)cc1	
≤ 100 nM			CCC(CC)n1c(=O)n(C)c2cnc(Nc3ccc(N4CCN(C)CC4)cc3)nc21	
			Cc1cn(C2CCCC2)c2nc(Nc3ccc(N4CCN(C)CC4)cc3)ncc12	IC50 (JAK-3; [2]): ≥ 100 nM
≥ 100 nM			CCC(CC)N1C(=O)Cc2cnc(Nc3ccc(C(=O)NCCN4CCN(C)CC4)cc3)nc21	
≥ 100 nM			O=C1Cc2cnc(Nc3ccc(N4CCOCC4)cc3)nc2N1	
≥ 100 nM			COc1ccc(C(=O)N2CCOCC2)cc1Nc1ncc2c(n1)NC(=O)C2 [drawing 19]	
			CCOC(OCC)c1cc2cnc(Nc3ccc(N4CCN(C(C)=O)CC4)cc3)nc2n1C(CC)CC [drawing 117]	IC50 (JAK-3; [2]): ≥ 100 nM
			Cc1cn(C2CCCCC2)c2nc(Nc3ccc(N4CCN(C)CC4)cc3)ncc12 [drawing 115]	IC50 (JAK-3; [2]): ≥ 100 nM
≥ 100 nM			CCC(CC)N1C(=O)Cc2cnc(Nc3ccc(N4CCN(C)CC4)nc3)nc21	
≥ 100 nM			CCC(CC)N1C(=O)Cc2cnc(Nc3ccc(NS(=O)(=O)c4ccc(C)cc4)cc3)nc21	

IC50 (JAK-3; Table A, read-out: Jak-3/ IC50)	IC50 (CDK4; [3])	IC50 [1]	Structure (SMILES)	other results
≥ 100 nM			CCC(CC)N1C(=O)Cc2cnc(Cl)nc21	
≤ 100 nM			CCC(CC)N1C(=O)Cc2cnc(Nc3cccc(OCCN4CCCC4)c3)nc21	
			CCC(CC)n1c(CO)cc2cnc(Nc3ccc(N4CCN(C(C)=O)CC4)cc3)nc21 [drawing 119]	IC50 (JAK-3; [2]): ≤ 100 nM
≥ 100 nM			CCC(CC)n1c(=O)[nH]c2cnc(Nc3ccc(N4CCN(C(C)=O)CC4)cc3)nc21	
≤ 100 nM			CCC(CC)n1c(=O)n(C)c2cnc(Nc3ccc(N4CCN(C(C)=O)CC4)cc3)nc21	
≥ 100 nM			CN1CCN(c2ccc(Nc3ncc4c(n3)NC(=O)C4)cc2)CC1	
≥ 100 nM			CCC(CC)N1C(=O)Cc2cnc(Nc3ccc(C(=O)NCCN(C)C)cc3)nc21	
			CCC(CC)n1c(C=O)cc2cnc(Nc3ccc(N4CCN(C(C)=O)CC4)cc3)nc21 [drawing 118]	IC50 (JAK-3; [2]): ≤ 100 nM
			CCC(CC)n1ccc2cnc(NC3CC3)nc21 [drawing 100]	IC50 (JAK-3; [2]): ≥ 100 nM
≥ 100 nM			CCC(CC)N1C(=O)Cc2cnc(Nc3ccc4[nH]ncc4c3)nc21	
			CC(=O)N1CCN(c2ccc(Nc3ncc4c(C)cn(C5CCCCC5)c4n3)cc2)CC1 [drawing 120]	IC50 (JAK-3; [2]): ≥ 100 nM
≥ 100 nM			CCC(CC)N1C(=O)Cc2cnc(Nc3ccc(N4CCN(C(C)=O)CC4)cn3)nc21	
≥ 100 nM			CCC(CC)N1C(=O)Cc2cnc(Nc3ccc(N4CCC(OC(=O)c5ccccc5)CC4)cc3)nc21	
≥ 100 nM			CCC(CC)N1C(=O)Cc2cnc(Nc3cccc(C(=O)N4CCN(C)CC4)c3)nc21	
≥ 100 nM			CCC(CC)N1C(=O)Cc2cnc(Nc3ccc(N4CCCCC4)cc3)nc21	
			CCC(CC)n1ccc2cnc(Nc3ccc(C(=O)NC4CCCC4)cc3)nc21 [drawing 99]	IC50 (JAK-3; [2]): ≤ 100 nM
≤ 100 nM			CCC(CC)N1C(=O)Cc2cnc(Nc3ccc(N4CCN(C)CC4)cc3)nc21	
≥ 100 nM			CCC(CC)N1C(=O)Cc2cnc(Nc3cc(NC(=O)c4ccncc4)ccc3OC)nc21	
			Cc1cn(C2CC2)c2nc(Nc3ccc(N4CCNCC4)cn3)ncc12 [drawing 123]	IC50 (JAK-3; [2]): ≥ 100 nM
≤ 100 nM			CCC(c1ccccc1)n1ccc2cnc(Nc3ccc(N4CCN(C(C)=O)CC4)cc3)nc21 (centres unmarked)	
			CCC(CC)n1c(C)cc2cnc(Nc3ccc(N4CCNCC4)cc3)nc21 [drawing 125]	IC50 (JAK-3; [2]): ≤ 100 nM
≥ 100 nM			CN1CCN(c2ccc(Nc3ncc4c(n3)N(C3CCCC3)C(=O)C4)cc2)CC1	

IC50 (JAK-3; Table A, read-out: Jak-3/ IC50)	IC50 (CDK4; [3])	IC50 [1]	Structure (SMILES)	other results
≤ 100 nM			CCC(CC)N1C(=O)Cc2cnc(Nc3ccc(N4CCC(O)CC4)cc3)nc21	
	< 1000 nM	< 1000 nM	c1cc(N2CCNCC2)ccc1Nc1ncc2ccn(C34CC5CC(CC(C5)C3)C4)c2n1 [Example 245]	
	< 1000 nM	> 10000 nM	Cc1c(C(=O)O)n(C2CCCC2)c2nc(Nc3ccc(N4CCNCC4)cn3)ncc12 [Example 444]	
	< 1000 nM	< 10000 nM	CCC(CC)n1c(C(=O)N(C)C)cc2cnc(Nc3ccc(N4CCNCC4)cc3)nc21 [Example 335, 7-(1-ethyl-propyl)-2-(4-piperazin-1-yl-phenylamino)-7H-pyrrolo[2,3-d]pyrimidine-6-carboxylic acid dimethyl amide]	
	> 10000 nM	> 10000 nM	Cc1ccc(Nc2ncc3ccn(C4CCCC4)c3n2)nc1 [Example 434]	
	> 10000 nM	> 10000 nM	COC(=O)c1c(C)n(C2CCCC2)c2nc(Nc3ccc(N4CCNCC4)cn3)ncc12 [Example 385, 7-Cyclopentyl-6-methyl-2-(5-piperazin-1-yl-pyridin-2-ylamino)-7H-pyrrolo[2,3-d]pyrimidine-5-carboxylic acid methyl ester]	
	< 1000 nM	> 10000 nM	Clc1cn(C2CCCC2)c2nc(Nc3ccc(N4CCNCC4)cn3)ncc12 [Example 433]	
	< 1000 nM	< 10000 nM	CC1CCCC(n2ccc3cnc(Nc4ccc(N5CCNCC5)cc4)nc32)C1 (centres unmarked) [Example 242]	
	< 1000 nM	> 10000 nM	COC(=O)c1c(C)c2cnc(Nc3ccc(N4CCNCC4)cn3)nc2n1C1CCCC1 [Example 384, 7-Cyclopentyl-5-methyl-2-(5-piperazin-1-yl-pyridin-2-ylamino)-7H-pyrrolo[2,3-d]pyrimidine-6-carboxylic acid methyl ester]	
	> 10000 nM	< 10000 nM	c1ncc(-c2ccc(Nc3ncc4ccn(C5CCCC5)c4n3)cc2)o1 [Example 258]	
	< 1000 nM	< 10000 nM	c1cc(N2CCNCC2)ccc1Nc1ncc2ccn(C3CCCC3)c2n1 [Example 256]	
	10000 nM	> 10000 nM	Cc1cn(C2CCCC2)c2nc(Nc3ccc(N4CCN(S(C)(=O)=O)CC4)cn3)ncc12 [Example 287]	
	10000 nM	> 10000 nM	Cc1cn(C2CCCC2)c2nc(Nc3ccccc3Cl)ncc12 [Example 443]	
	< 1000 nM	< 1000 nM	CCC(CC)n1c(-c2cnco2)cc2cnc(Nc3ccc(N4CCN(C(C)=O)CC4)cc3)nc21 [Example 363, 1-(4-{4-[7-(1-Ethyl-propyl)-6-oxazol-5-yl-7H-pyrrolo[2,3-d]pyrimidin-2-ylamino]-phenyl}-piperazin-1-yl)-ethanone]	
	10000 nM	< 10000 nM	COc1cccc(Nc2ncc3c(C)cn(C4CCCC4)c3n2)c1 [Example 294]	
	< 1000 nM	< 10000 nM	CC1CCC(n2ccc3cnc(Nc4ccc(N5CCNCC5)cc4)nc32)CC1 (centres unmarked) [Example 240]	
	> 10000 nM	> 10000 nM	COC(=O)c1c(C)n(C2CCCC2)c2nc(Nc3ccc(N4CCNCC4)cc3)ncc12 [Example 408]	
	< 1000 nM	< 1000 nM	NC1CCC(n2ccc3cnc(Nc4ccc(N5CCNCC5)cc4)nc32)CC1 (centres unmarked) [Example 243]	
	< 1000 nM	> 10000 nM	CCOC(=O)C(C(C)C)n1ccc2cnc(Nc3ccc(N4CCNCC4)cc3)nc21 (centres unmarked) [Example 231]	
	10000 nM	> 10000 nM	COc1ccccc1Nc1ncc2c(C)cn(C3CCCC3)c2n1 [Example 293]	
	< 1000 nM	> 10000 nM	Cc1cc(-c2c(C)c3cnc(Nc4ccc(N5CCNCC5)cn4)nc3n2C2CCCC2)[nH]n1 [Example 404]	
	> 10000 nM	< 10000 nM	Cc1ccc(Nc2ncc3ccn(C4CCCC4)c3n2)cc1 [Example 435]	

Structure (SMILES)	IC50 (JAK-3; Table A, read-out: Jak-3/ IC50)	IC50 (CDK4; [3])	IC50 [1]	other results
c1cc(Nc2ncc3ccn(C4CCCC4)c3n2)ncc1N1CCNCC1 [Example 424]			> 10000 nM	IC50 (CDK4; CDK4 HTRF/IC50 [umol l − 1]): < 1000 nM
